According to PubChem BioAssay (NCI):
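Test compounds were applied to cells in 96-well plates for 48 hours at 5 doses. The concentration for full growth arrest is given as TGI.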

Legend:
Assay in all cases: NCI-60 cell line screen, 48 h
786-0 renal = test system: 786-0 renal
A498 renal = test system: A498 renal
A549 NSCLC = test system: A549 NSCLC
ACHN renal = test system: ACHN renal
BT-549 breast = test system: BT-549 breast
CAKI-1 renal = test system: CAKI-1 renal
CCRF-CEM leukemia = test system: CCRF-CEM leukemia
COLO 205 colon = test system: COLO 205 colon
DU-145 prostate = test system: DU-145 prostate
EKVX NSCLC = test system: EKVX NSCLC
HCC-2998 colon = test system: HCC-2998 colon
HCT-116 colon = test system: HCT-116 colon
HCT-15 colon = test system: HCT-15 colon
HL-60(TB) leukemia = test system: HL-60(TB) leukemia
HOP-62 NSCLC = test system: HOP-62 NSCLC
HOP-92 NSCLC = test system: HOP-92 NSCLC
HS 578T breast = test system: HS 578T breast
HT29 colon = test system: HT29 colon
IGROV1 ovarian = test system: IGROV1 ovarian
K-562 leukemia = test system: K-562 leukemia
KM12 colon = test system: KM12 colon
LOX IMVI melanoma = test system: LOX IMVI melanoma
M14 melanoma = test system: M14 melanoma
MALME-3M melanoma = test system: MALME-3M melanoma
MCF7 breast = test system: MCF7 breast
MDA-MB-231 breast = test system: MDA-MB-231 breast
MDA-MB-435 = test system: MDA-MB-435
MDA-N = test system: MDA-N
MOLT-4 leukemia = test system: MOLT-4 leukemia
NCI-H226 lung = test system: NCI-H226 lung
NCI-H23 lung = test system: NCI-H23 lung
NCI-H460 lung = test system: NCI-H460 lung
NCI-H522 lung = test system: NCI-H522 lung
NCI/ADR-RES ovarian = test system: NCI/ADR-RES ovarian
OVCAR-3 ovarian = test system: OVCAR-3 ovarian
OVCAR-4 ovarian = test system: OVCAR-4 ovarian
OVCAR-5 ovarian = test system: OVCAR-5 ovarian
OVCAR-8 ovarian = test system: OVCAR-8 ovarian
PC-3 prostate = test system: PC-3 prostate
RPMI-8226 leukemia = test system: RPMI-8226 leukemia
RXF 393 renal = test system: RXF 393 renal
SF-268 CNS = test system: SF-268 CNS
SF-295 CNS = test system: SF-295 CNS
SF-539 CNS = test system: SF-539 CNS
SK-MEL-2 melanoma = test system: SK-MEL-2 melanoma
SK-MEL-28 melanoma = test system: SK-MEL-28 melanoma
SK-MEL-5 melanoma = test system: SK-MEL-5 melanoma
SK-OV-3 ovarian = test system: SK-OV-3 ovarian
SN12C renal = test system: SN12C renal
SNB-19 CNS = test system: SNB-19 CNS
SNB-75 CNS = test system: SNB-75 CNS
SR leukemia = test system: SR leukemia
SW-620 colon = test system: SW-620 colon
T-47D breast = test system: T-47D breast
TK-10 renal = test system: TK-10 renal
U251 CNS = test system: U251 CNS
UACC-257 melanoma = test system: UACC-257 melanoma
UACC-62 melanoma = test system: UACC-62 melanoma
UO-31 renal = test system: UO-31 renal

## Fc1ccc(N=C/C=C/Nc2ccc(F)cc2)cc1
786-0 renal
  TGI: 16.4 µM
A498 renal
  TGI: 28.8 µM
A549 NSCLC
  TGI: 21.8 µM
ACHN renal
  TGI: 15 µM
BT-549 breast
  TGI: 27.4 µM
CAKI-1 renal
  TGI: 28.2 µM
CCRF-CEM leukemia
  TGI: > 51.3 µM
COLO 205 colon
  TGI: 12.5 µM
DU-145 prostate
  TGI: 26.7 µM
EKVX NSCLC
  TGI: 25.9 µM
HCC-2998 colon
  TGI: 19.5 µM
HCT-116 colon
  TGI: 18.9 µM
HCT-15 colon
  TGI: 15.2 µM
HL-60(TB) leukemia
  TGI: 10.3 µM
HOP-62 NSCLC
  TGI: 33 µM
HOP-92 NSCLC
  TGI: 33.1 µM
HS 578T breast
  TGI: 47.2 µM
HT29 colon
  TGI: 24.2 µM
IGROV1 ovarian
  TGI: 26.2 µM
K-562 leukemia
  TGI: 22.1 µM
KM12 colon
  TGI: 19.9 µM
LOX IMVI melanoma
  TGI: 18.5 µM
M14 melanoma
  TGI: 11.9 µM
MALME-3M melanoma
  TGI: 30.6 µM
MCF7 breast
  TGI: 28.3 µM
MDA-MB-231 breast
  TGI: 30.1 µM
MDA-MB-435
  TGI: 20.8 µM
MDA-N
  TGI: 18.5 µM
MOLT-4 leukemia
  TGI: 38.5 µM
NCI-H226 lung
  TGI: 36.2 µM
NCI-H23 lung
  TGI: 48.4 µM
NCI-H460 lung
  TGI: 24.7 µM
NCI-H522 lung
  TGI: 27.6 µM
NCI/ADR-RES ovarian
  TGI: 26.4 µM
OVCAR-3 ovarian
  TGI: 31.1 µM
OVCAR-4 ovarian
  TGI: 29.8 µM
OVCAR-5 ovarian
  TGI: 25.3 µM
OVCAR-8 ovarian
  TGI: 25.9 µM
PC-3 prostate
  TGI: 22.3 µM
RPMI-8226 leukemia
  TGI: 52 µM
RXF 393 renal
  TGI: 30.5 µM
SF-268 CNS
  TGI: 27.5 µM
SF-295 CNS
  TGI: 24.2 µM
SF-539 CNS
  TGI: 27.2 µM
SK-MEL-2 melanoma
  TGI: 26.7 µM
SK-MEL-28 melanoma
  TGI: 22 µM
SK-MEL-5 melanoma
  TGI: 22.3 µM
SK-OV-3 ovarian
  TGI: 28.8 µM
SN12C renal
  TGI: 28.3 µM
SNB-19 CNS
  TGI: 26.9 µM
SNB-75 CNS
  TGI: 28.4 µM
SR leukemia
  TGI: 9.17 µM
SW-620 colon
  TGI: 20.7 µM
T-47D breast
  TGI: 29.4 µM
TK-10 renal
  TGI: 4.32 µM
U251 CNS
  TGI: 20.6 µM
UACC-257 melanoma
  TGI: 26.8 µM
UACC-62 melanoma
  TGI: 16.8 µM
UO-31 renal
  TGI: 21 µM

## Clc1ccc(-c2nnc(-c3cccc4ccccc34)o2)cc1Cl
786-0 renal
  TGI: > 100 µM
A498 renal
  TGI: > 100 µM
A549 NSCLC
  TGI: > 100 µM
ACHN renal
  TGI: > 100 µM
BT-549 breast
  TGI: > 100 µM
CAKI-1 renal
  TGI: > 100 µM
CCRF-CEM leukemia
  TGI: > 100 µM
COLO 205 colon
  TGI: > 100 µM
DU-145 prostate
  TGI: > 100 µM
EKVX NSCLC
  TGI: > 100 µM
HCC-2998 colon
  TGI: > 100 µM
HCT-116 colon
  TGI: > 100 µM
HCT-15 colon
  TGI: > 100 µM
HL-60(TB) leukemia
  TGI: > 100 µM
HOP-62 NSCLC
  TGI: > 100 µM
HOP-92 NSCLC
  TGI: > 100 µM
HS 578T breast
  TGI: > 100 µM
HT29 colon
  TGI: > 100 µM
IGROV1 ovarian
  TGI: 53.9 µM
K-562 leukemia
  TGI: > 100 µM
KM12 colon
  TGI: > 100 µM
LOX IMVI melanoma
  TGI: > 100 µM
M14 melanoma
  TGI: > 100 µM
MALME-3M melanoma
  TGI: > 100 µM
MCF7 breast
  TGI: > 100 µM
MDA-MB-231 breast
  TGI: > 100 µM
MDA-MB-435
  TGI: > 100 µM
MDA-N
  TGI: > 100 µM
MOLT-4 leukemia
  TGI: > 100 µM
NCI-H226 lung
  TGI: > 100 µM
NCI-H23 lung
  TGI: > 100 µM
NCI-H460 lung
  TGI: > 100 µM
NCI-H522 lung
  TGI: > 100 µM
NCI/ADR-RES ovarian
  TGI: > 100 µM
OVCAR-3 ovarian
  TGI: > 100 µM
OVCAR-4 ovarian
  TGI: > 100 µM
OVCAR-5 ovarian
  TGI: > 100 µM
OVCAR-8 ovarian
  TGI: > 100 µM
PC-3 prostate
  TGI: > 100 µM
RPMI-8226 leukemia
  TGI: > 100 µM
RXF 393 renal
  TGI: > 100 µM
SF-268 CNS
  TGI: > 100 µM
SF-295 CNS
  TGI: > 100 µM
SF-539 CNS
  TGI: > 100 µM
SK-MEL-2 melanoma
  TGI: > 100 µM
SK-MEL-28 melanoma
  TGI: > 100 µM
SK-MEL-5 melanoma
  TGI: > 100 µM
SK-OV-3 ovarian
  TGI: > 100 µM
SN12C renal
  TGI: > 100 µM
SNB-19 CNS
  TGI: > 100 µM
SNB-75 CNS
  TGI: > 100 µM
SR leukemia
  TGI: > 100 µM
SW-620 colon
  TGI: > 100 µM
T-47D breast
  TGI: > 100 µM
TK-10 renal
  TGI: > 100 µM
U251 CNS
  TGI: > 100 µM
UACC-257 melanoma
  TGI: > 100 µM
UACC-62 melanoma
  TGI: > 100 µM
UO-31 renal
  TGI: > 100 µM

## CSc1cc(-c2ccccn2)nc(-c2ccccn2)c1
786-0 renal
  TGI: 11.4 µM
A498 renal
  TGI: 2.76 µM
A549 NSCLC
  TGI: 3.58 µM
ACHN renal
  TGI: 0.977 µM
BT-549 breast
  TGI: 6.07 µM
CAKI-1 renal
  TGI: 1.81 µM
CCRF-CEM leukemia
  TGI: > 100 µM
COLO 205 colon
  TGI: 7.29 µM
DU-145 prostate
  TGI: 26.6 µM
EKVX NSCLC
  TGI: 12.3 µM
HCC-2998 colon
  TGI: 12.9 µM
HCT-116 colon
  TGI: 11.7 µM
HCT-15 colon
  TGI: 4.11 µM
HL-60(TB) leukemia
  TGI: 0.89 µM
HOP-62 NSCLC
  TGI: 4.49 µM
HOP-92 NSCLC
  TGI: 2.91 µM
HS 578T breast
  TGI: 48.9 µM
HT29 colon
  TGI: 13 µM
IGROV1 ovarian
  TGI: 8.99 µM
K-562 leukemia
  TGI: > 100 µM
KM12 colon
  TGI: 14.4 µM
LOX IMVI melanoma
  TGI: 1.52 µM
M14 melanoma
  TGI: 0.335 µM
MALME-3M melanoma
  TGI: 9.18 µM
MCF7 breast
  TGI: 10.1 µM
MDA-MB-231 breast
  TGI: 18.1 µM
MDA-MB-435
  TGI: 12.9 µM
MDA-N
  TGI: 16 µM
MOLT-4 leukemia
  TGI: > 100 µM
NCI-H226 lung
  TGI: 0.955 µM
NCI-H23 lung
  TGI: 7.25 µM
NCI-H460 lung
  TGI: 1.88 µM
NCI-H522 lung
  TGI: 9.74 µM
NCI/ADR-RES ovarian
  TGI: 1 µM
OVCAR-3 ovarian
  TGI: 5 µM
OVCAR-4 ovarian
  TGI: 13.2 µM
OVCAR-5 ovarian
  TGI: 9.46 µM
OVCAR-8 ovarian
  TGI: 12.5 µM
PC-3 prostate
  TGI: 17.9 µM
RPMI-8226 leukemia
  TGI: > 100 µM
RXF 393 renal
  TGI: 4.47 µM
SF-268 CNS
  TGI: > 35.2 µM
SF-295 CNS
  TGI: 11.5 µM
SF-539 CNS
  TGI: 6.06 µM
SK-MEL-2 melanoma
  TGI: 14.9 µM
SK-MEL-28 melanoma
  TGI: 14.8 µM
SK-MEL-5 melanoma
  TGI: 4.07 µM
SK-OV-3 ovarian
  TGI: 10.8 µM
SN12C renal
  TGI: 13.4 µM
SNB-19 CNS
  TGI: > 50.5 µM
SNB-75 CNS
  TGI: 13.6 µM
SR leukemia
  TGI: > 100 µM
SW-620 colon
  TGI: 16.6 µM
T-47D breast
  TGI: 17.6 µM
TK-10 renal
  TGI: 0.75 µM
U251 CNS
  TGI: 11.7 µM
UACC-257 melanoma
  TGI: 15.3 µM
UACC-62 melanoma
  TGI: 1.23 µM
UO-31 renal
  TGI: 1.64 µM
